The experiment deals with hTREM2 (Homo sapiens, UniProt Q9NZC2). In words: Phospho-Syk AlphaScreen/AlphaLISA assay in TREM2 and DAP12 overexpressing HEK293 cells (Example A1). Format: cell-based. Set-up: expressed in transfected cells. The following applies: HEK293 cells; for EC50: read-out: hTREM2 EC50. The essentials:
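Agonism read as Syk phosphorylation: compounds in 1% DMSO applied 45 min at room temperature to TREM2/DAP12-HEK293 cells after 20 h culture. Lysis buffer with phosphatase inhibitors and anti-phospho-Syk plus biotinylated anti-Syk antibodies, then AlphaLISA beads (680 nm excitation); percent of control computed from antibody/isotype wells, curves fitted sigmoidally.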

Sequence of hTREM2 (Q9NZC2 19-230): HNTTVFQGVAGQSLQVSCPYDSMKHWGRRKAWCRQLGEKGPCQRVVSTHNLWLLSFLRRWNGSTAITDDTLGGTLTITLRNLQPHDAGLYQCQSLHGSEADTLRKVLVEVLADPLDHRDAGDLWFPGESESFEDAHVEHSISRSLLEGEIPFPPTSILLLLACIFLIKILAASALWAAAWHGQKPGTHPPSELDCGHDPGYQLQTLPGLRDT
Sequence of hTREM2 (O43914 22-113 partner): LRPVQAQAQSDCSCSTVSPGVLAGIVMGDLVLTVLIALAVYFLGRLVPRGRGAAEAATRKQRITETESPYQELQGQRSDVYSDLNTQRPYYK

`CCn1c(C)nc2cc(N3CCO[C@H](c4noc(C)n4)C3)nc(-c3ccc(Cl)cc3F)c2c1=O` [Example 147, 5-(4-chloro-2-fluorophenyl)-3-ethyl-2-methyl-7-((2S)-2-(5-methyl-1,2,4-oxadiazol-3-yl)-4-morpholinyl)pyrido[4,3-d]pyrimidin-4(3H)-one]: the Emax result is given as “++++ (Emax>300)” and the EC50 – broadly, the concentration giving half of the maximal effect – is 50 to 500 nM.

For `CCn1c(C)nc2cc(N3CCO[C@@H](c4noc(C)n4)C3)nc(-c3ccc(Cl)cc3F)c2c1=O` [Example 148, 5-(4-chloro-2-fluorophenyl)-3-ethyl-2-methyl-7-((2R)-2-(5-methyl-1,2,4-oxadiazol-3-yl)-4-morpholinyl)pyrido[4,3-d]pyrimidin-4(3H)-one], the Emax result is “++++ (Emax>300)” and the EC50 lay in the range of 3000 to 100000 nM.

In the case of `CCn1c(C)nc2cc(N3CCO[C@@H](c4ccnc(C)c4)C3)nc(-c3ccc(Cl)cc3F)c2c1=O` [Example 149, 5-(4-chloro-2-fluorophenyl)-3-ethyl-2-methyl-7-((2S)-2-(2-methyl-4-pyridinyl)-4-morpholinyl)pyrido[4,3-d]pyrimidin-4(3H)-one], the Emax entry was “+++ (Emax>200 and ≤300)”; the EC50 is under 50 nM.

For the molecule `CCn1c(C)nc2cc(N3CCO[C@@H](c4ccnc(C)c4)C3)nc(-c3ccc(F)cc3F)c2c1=O` [Example 150, 5-(2,4-difluorophenyl)-3-ethyl-2-methyl-7-((2S)-2-(2-methyl-4-pyridinyl)-4-morpholinyl)pyrido[4,3-d]pyrimidin-4(3H)-one], the Emax result was “+++ (Emax>200 and ≤300)”; the EC50 is under 50 nM.

Regarding `CCn1c(C)nc2cc(N3CCO[C@@H](c4cnn(C5CC5)c4)C3)nc(-c3ccc(F)cc3F)c2c1=O` [Example 151, 7-((2S)-2-(1-cyclopropyl-1H-pyrazol-4-yl)-4-morpholinyl)-5-(2,4-difluorophenyl)-3-ethyl-2-methylpyrido[4,3-d]pyrimidin-4(3H)-one], the Emax result is “+++ (Emax>200 and ≤300)”; the EC50 was under 50 nM.

In the case of `CCCn1c(C)nc2cc(N3CCO[C@@H](c4cnn(C)c4)C3)nc(-c3ccc(Cl)cc3F)c2c1=O` [Example 152, 5-(4-chloro-2-fluorophenyl)-2-methyl-7-((2S)-2-(1-methyl-1H-pyrazol-4-yl)-4-morpholinyl)-3-propylpyrido[4,3-d]pyrimidin-4(3H)-one], the Emax entry is “+++ (Emax>200 and ≤300)”; the EC50 was under 50 nM.

Turning to `CCCn1c(C)nc2cc(N3CCO[C@@H](c4cnn(C)c4)C3)nc(-c3ncc(Cl)cc3F)c2c1=O` [Example 153, 5-(5-chloro-3-fluoro-2-pyridinyl)-2-methyl-7-((2S)-2-(1-methyl-1H-pyrazol-4-yl)-4-morpholinyl)-3-propylpyrido[4,3-d]pyrimidin-4(3H)-one], the Emax result was “++++ (Emax>300)” and the concentration for a half-maximal effect (EC50) is 50 to 500 nM.

`CCCn1c(C)nc2cc(N3CCO[C@H](c4ccnn4C)C3)nc(-c3ccc(Cl)cc3F)c2c1=O` [Example 154, 5-(4-chloro-2-fluorophenyl)-2-methyl-7-((2S)-2-(1-methyl-1H-pyrazol-5-yl)-4-morpholinyl)-3-propylpyrido[4,3-d]pyrimidin-4(3H)-one]: the Emax result is on record as “++++ (Emax>300)” and the EC50 fell in the range of 3000 to 100000 nM.

Take `CCCn1c(C)nc2cc(N3CCO[C@@H](c4ccnn4C)C3)nc(-c3ccc(Cl)cc3F)c2c1=O` [Example 155, 5-(4-chloro-2-fluorophenyl)-2-methyl-7-((2R)-2-(1-methyl-1H-pyrazol-5-yl)-4-morpholinyl)-3-propylpyrido[4,3-d]pyrimidin-4(3H)-one]: the Emax result is recorded as “++++ (Emax>300)” and the EC50 fell in the range of 50 to 500 nM.

For the molecule `CCCn1c(C)nc2cc(N3CCO[C@@H](C(F)F)C3)nc(-c3ccc(Cl)cc3F)c2c1=O` [Example 156, 5-(4-chloro-2-fluorophenyl)-7-((2R)-2-(difluoromethyl)-4-morpholinyl)-2-methyl-3-propylpyrido[4,3-d]pyrimidin-4(3H)-one], the Emax entry is “++++ (Emax>300)” and the EC50 lay within 500 to 3000 nM.

As for `CCCn1c(C)nc2cc(N3CCO[C@@H](c4ccccc4)C3)nc(-c3ccc(Cl)cc3F)c2c1=O` [Example 157, 5-(4-chloro-2-fluorophenyl)-2-methyl-7-((2S)-2-phenyl-4-morpholinyl)-3-propylpyrido[4,3-d]pyrimidin-4(3H)-one], the Emax entry is recorded as “++++ (Emax>300)” and the concentration for a half-maximal effect (EC50) is 500 to 3000 nM.

With `Cn1cc([C@H]2CN(c3cc4ncn(C)c(=O)c4c(-c4ccc(Cl)cc4F)n3)CCO2)cn1` [Example 158, 5-(4-chloro-2-fluorophenyl)-3-methyl-7-((2S)-2-(1-methyl-1H-pyrazol-4-yl)-4-morpholinyl)pyrido[4,3-d]pyrimidin-4(3H)-one], the Emax result is “+++ (Emax>200 and ≤300)”; the EC50 is 500 to 3000 nM.

For `Cc1nc2cc(N3CCO[C@@H](c4cnn(C)c4)C3)nc(C3CCCCC3)c2c(=O)n1C` [Example 159, 5-cyclohexyl-2,3-dimethyl-7-((2S)-2-(1-methyl-1H-pyrazol-4-yl)-4-morpholinyl)pyrido[4,3-d]pyrimidin-4(3H)-one], the Emax result was “+++ (Emax>200 and ≤300)”; the EC50 was 500 to 3000 nM.

In the case of `Cc1nc2cc(N3CCO[C@@H](c4cnn(C)c4)C3)nc(C3CCCC3)c2c(=O)n1C` [Example 160, 5-cyclopentyl-2,3-dimethyl-7-((2S)-2-(1-methyl-1H-pyrazol-4-yl)-4-morpholinyl)pyrido[4,3-d]pyrimidin-4(3H)-one], the Emax result is “+++ (Emax>200 and ≤300)”; the EC50 fell in the range of 500 to 3000 nM.

As to `Cc1ccc(C2CC(c3cc4nc(C)n(C)c(=O)c4c(-c4ccc(Cl)cc4F)n3)CCO2)cn1` (centres unmarked) [Example 171, 5-(4-chloro-2-fluorophenyl)-2,3-dimethyl-7-(2-(6-methylpyridin-3-yl)tetrahydro-2H-pyran-4-yl)pyrido[4,3-d]pyrimidin-4(3H)-one], the Emax entry is “+++ (Emax>200 and ≤300)”; the EC50 fell in the range of 50 to 500 nM.

With `CCCn1c(C)nc2cc(N3CCO[C@@H](C(F)(F)F)C3)nc(-c3ccc(Cl)cc3F)c2c1=O` [Example 179, (R)-5-(4-chloro-2-fluorophenyl)-2-methyl-3-propyl-7-(2-(trifluoromethyl)morpholino)pyrido[4,3-d]pyrimidin-4(3H)-one], the Emax result was “++++ (Emax>300)” and the concentration for a half-maximal effect (EC50) was 500 to 3000 nM.

Take `CCCn1c(C)nc2cc(N3CCO[C@H](C(F)(F)F)C3)nc(-c3ccc(Cl)cc3F)c2c1=O` [Example 180, (S)-5-(4-chloro-2-fluorophenyl)-2-methyl-3-propyl-7-(2-(trifluoromethyl)morpholino)pyrido[4,3-d]pyrimidin-4(3H)-one]: the Emax entry is “++++ (Emax>300)” and the concentration for a half-maximal effect (EC50) lay within 500 to 3000 nM.

In the case of `CCCn1c(C)nc2cc(N3Cc4cnn(C)c4C3)nc(-c3ccc(Cl)cc3F)c2c1=O` [Example 181, 5-(4-chloro-2-fluorophenyl)-2-methyl-7-(1-methyl-4,6-dihydropyrrolo[3,4-c]pyrazol-5(1H)-yl)-3-propylpyrido[4,3-d]pyrimidin-4(3H)-one], the Emax entry is “++++ (Emax>300)” and the EC50 lay in the range of 3000 to 100000 nM.

As to `CCCn1c(C)nc2cc(N3CCn4ccnc4C3)nc(-c3ccc(Cl)cc3F)c2c1=O` [Example 182, 5-(4-chloro-2-fluorophenyl)-7-(5,6-dihydroimidazo[1,2-a]pyrazin-7(8H)-yl)-2-methyl-3-propylpyrido[4,3-d]pyrimidin-4(3H)-one], the Emax entry was “+++ (Emax>200 and ≤300)”; the EC50 fell in the range of 3000 to 100000 nM.

Take `CCCn1c(C)nc2cc(N3CCO[C@H](C(F)F)C3)nc(-c3ccc(Cl)cc3F)c2c1=O` [Example 183, (S)-5-(4-chloro-2-fluorophenyl)-7-(2-(difluoromethyl)morpholino)-2-methyl-3-propylpyrido[4,3-d]pyrimidin-4(3H)-one]: the Emax result was “+++ (Emax>200 and ≤300)”; the EC50 fell in the range of 500 to 3000 nM.

Consider `CCCn1c(C)nc2cc(N3CCO[C@H](c4ccnn4C)C3)nc(-c3ccc(Cl)cc3F)c2c1=O` [Example 184, (S)-5-(4-chloro-2-fluorophenyl)-2-methyl-7-(2-(1-methyl-1H-pyrazol-5-yl)morpholino)-3-propylpyrido[4,3-d]pyrimidin-4(3H)-one], for which the Emax result is “++++ (Emax>300)” and the EC50 fell in the range of 50 to 500 nM.

For `CCCn1c(C)nc2cc(N3CCOC(CF)C3)nc(-c3ccc(Cl)cc3F)c2c1=O` (centres unmarked) [Example 185, 5-(4-chloro-2-fluorophenyl)-7-(2-(fluoromethyl)morpholino)-2-methyl-3-propylpyrido[4,3-d]pyrimidin-4(3H)-one], the Emax result was “+++ (Emax>200 and ≤300)”; the EC50 lay within 500 to 3000 nM.

As to `CCCn1c(C)nc2cc(N3CCO[C@H](c4ccccc4)C3)nc(-c3ccc(Cl)cc3F)c2c1=O` [Example 186, (R)-5-(4-chloro-2-fluorophenyl)-2-methyl-7-(2-phenylmorpholino)-3-propylpyrido[4,3-d]pyrimidin-4(3H)-one], the Emax entry is recorded as “++++ (Emax>300)” and the EC50 fell in the range of 500 to 3000 nM.

Regarding `CCCn1c(C)nc2cc(N3CCO[C@H](CC)C3)nc(-c3ccc(Cl)cc3F)c2c1=O` [Example 187, (R)-5-(4-chloro-2-fluorophenyl)-7-(2-ethylmorpholino)-2-methyl-3-propylpyrido[4,3-d]pyrimidin-4(3H)-one], the Emax result is “++++ (Emax>300)” and the concentration for a half-maximal effect (EC50) is 500 to 3000 nM.

Turning to `Cc1nc2cc(N3CCO[C@@H](C4CC4)C3)nc(-c3ccc(Cl)cc3F)c2c(=O)n1C` [Example 188, (S)-5-(4-chloro-2-fluorophenyl)-7-(2-cyclopropylmorpholino)-2,3-dimethylpyrido[4,3-d]pyrimidin-4(3H)-one], the Emax entry is on record as “++++ (Emax>300)” and the EC50 was 500 to 3000 nM.

Source of the values: US20250388574A1, “HETEROCYCLIC COMPOUNDS AS TRIGGERING RECEPTOR EXPRESSED ON MYELOID CELLS 2 AGONISTS AND METHODS OF USE” (AMGEN INC., priority 2020, published 2025).
